Laboratory results from patent US4745124A, “Orally effective anti-hypertensive agents” (priority 1983, dated 1988).
pIC50: −log10 of the molar value. Blank lines part the entries; values can stand above or below the molecule they belong to. No end group written: not given here. *: point of attachment. Bz = O=C(c1ccccc1)*

Legend:
[1] = molecular target: T1, angiotensin converting enzyme (human urinary ACE) (Homo sapiens, UniProt P12821); experiment: ACE activity assay, I50 (Example 216A); format: biochemical; conditions: human urinary ACE; Benzoyl-GlyHisLeu 1×10^-4 M; Hepes pH 8.0; 37° C; in vitro; read-out: I50
T1 construct: ACE purified from human urine; from tissue; host or cells: human urine (ultrafiltration and Sephacryl S-200, first eluting peak; prepared as in Ryan et al., Tissue and Cell 10, 555 (1978))

[2] = system: pressor effects of angiotensin I; experiment: oral effectiveness: blood pressure response to angiotensin I in anesthetized rats; format: in vivo, rat; conditions: oral 20 μmol/kg
Description: Rats (210-290 g body weight) were fasted overnight and then anesthetized with intraperitoneal pentobarbital, 50-60 mg/kg. Tracheostomy was performed and the animals were ventilated mechanically. A cannula was inserted into a femoral vein for injection of angiotensin I or II, and a second cannula was inserted into a common carotid artery for direct measurement of arterial blood pressure. Heparin, 1,000 units, was injected via the femoral vein to prevent coagulation. Blood pressure was measured with a pressure transducer connected to a polygraph. The rats were injected with 80 ng of angiotensin I or angiotensin II in 20 μl of 0.9 g % NaCl; an amount of antiotensin I or II sufficient to raise mean arterial blood pressure by 27-40 mm Hg. After the responsiveness of a given rat to angiotensins I and II was established, compound (I), at 2 or 5 mg/kg (drug dissolved in 0.5 ml of H2 O plus 10 μl of 1N NaHCO3), was given via a stomach tube. At timed intervals, the effects of 80 ng of angiotensin I or angiotensin II on mean arterial blood pressure were tested.
Rats were prepared as described in Example 222. Compound (II) [N-benzoyl-L-phenylalanylthiopropanoyl)-L-proline] was given orally, via a stomach tube, at a dose of 12 mg/kg or 20 mg/kg. Compound (II) was dissolved in 0.5 ml of H2 O plus 10 μl of 1N NaHCO3. In all other respects, the experimental preparations were exactly as described in Example 222.
Rats (210-290 g body weight) were fasted overnight and then anesthetized with intraperitoneal pentobarbital, 50-60 mg/kg. Tracheostomy was performed and the animals were ventilated mechanically. A cannula was inserted into a femoral vein for injection of angiotensin I or II, and a second cannula was inserted into a common carotid artery for direct measurement of arterial blood pressure. Heparin, 1,000 units, was injected via the femoral vein to prevent coagulation. Blood pressure was measured with a pressure transducer connected to a polygraph. The rats were injected with 160 ng of angiotensin I or 80 ng of angiotensin II in 20 μl of 0.9 g % NaCl; an amount of angiotensin I or II sufficient to raise mean arterial blood pressure by 27-40 mm Hg. After the responsiveness of a given rat to angiotensins I and II was established, compound (B) at 10 mg (drug dissolved in 0.5 ml of H2 O plus 10 μl of 1N NaHCO3), was given via a stomach tube. At timed intervals, the effects of 160 ng of angiotensin I or 80 ng of angiotensin II on mean arterial blood pressure were tested. Results are shown below:
Rats (210-290 g body weight) were fasted overnight and then anesthetized with intraperitoneal pentobarbital, 50-60 mg/kg. Tracheostomy was performed and the animals were ventilated mechanically. A cannula was inserted into a femoral vein for injection of angiotensin I, and a second cannula was inserted into a common carotid artery for direct measurement of arterial blood pressure. Heparin, 1,000 units, was injected via the femoral vein to prevent coagulation. Blood pressure was measured with a pressure transducer connected to a polygraph. The rats were injected with 400 ng/kg of angiotensin I in 20 μl of 0.9 g % NaCl; an amount of angiotensin I sufficient to raise mean arterial blood pressure by 39 mm Hg. After the responsiveness of a given rat to angiotensin I was established, the named compound at 17 μmol/kg (drug dissolved in 0.15 ml of H2 O plus 10 μl of 1N NaHCO3), was given via a stomach tube. At timed intervals, the effects of 400 ng/kg of angiotensin I on mean arterial blood pressure were tested. Results are shown below:
Rats (190-290 g body weight) were fasted overnight and then anesthetized with intraperitoneal pentobarbital, 50-60 mg/kg. Tracheostomy was performed and the animals were ventilated mechanically. A cannula was inserted into a femoral vein for injection of angtiotensin I, and a second cannula was inserted into a common carotid artery for direct measurement of arterial blood pressure. […]

[3] = system: pressor effects of angiotensin I; experiment: intravenous effectiveness: blood pressure response to angiotensin I in anesthetized rats; format: in vivo, rat; conditions: for Blood Pressure Response to 400 ng/kg Angiotensin I: i.v. 2 μmol/kg, Ex. 232; for t1/2: recovery of one half of lost responsiveness to angiotensin I 400 ng/kg
Description: (§1) Anesthetized rats were prepared as described in Example 228. After the responsiveness of a given rat to angiotensin I was established, the named compound at 2 μmol/kg, in a volume of 15 μl of 0.01N sodium bicarbonate, was injected via a femoral vein. At timed intervals, the effects of angiotensin I, 400 ng/kg, on mean arterial blood pressure were tested. Results are shown below:
as §1, with “231.” for “228.”, “compound,” for “compound”
Anesthetized rats were prepared as described in Example 239. The animals were administered the named compound via a femoral vein in 15 μl of 0.01N sodium bicarbonate, after the control response to 400 ng/kg of angiotensin I was measured. […] The time required for recovery of one half of the lost responsiveness to angiotensin I, following injection of the named compound, was designated t1/2. […] Results are shown for two dose levels:
Anesthetized rats were prepared as described in Example 242. The named compound was administered intravenously via a femoral vein, at the stated dose, in 15 μl of 0.01N sodium bicarbonate. The response to intravenous administration was a rapid decrease in responsiveness to Angtiotensin I, 400 ng/kg, followed by a gradual recovery to the pretreatment level of responsiveness. The time required for recovery of one half the lost responsiveness to angiotensin I, following injection of the named compound, is designated t1/2. […] Results are shown for the three dose levels:
The intravenous effectiveness of the named compound was examined by following the procedure described in Example 244 except that 1 μmole/kg of the drug was given intravenously. The results are shown below:
The intravenous effectiveness of the named compound was examined by following the procedure described in Example 246 except that 1 μmole/Kg of the drug was given intravenously.

T1 sequence (P12821 30-1232 limits assumed): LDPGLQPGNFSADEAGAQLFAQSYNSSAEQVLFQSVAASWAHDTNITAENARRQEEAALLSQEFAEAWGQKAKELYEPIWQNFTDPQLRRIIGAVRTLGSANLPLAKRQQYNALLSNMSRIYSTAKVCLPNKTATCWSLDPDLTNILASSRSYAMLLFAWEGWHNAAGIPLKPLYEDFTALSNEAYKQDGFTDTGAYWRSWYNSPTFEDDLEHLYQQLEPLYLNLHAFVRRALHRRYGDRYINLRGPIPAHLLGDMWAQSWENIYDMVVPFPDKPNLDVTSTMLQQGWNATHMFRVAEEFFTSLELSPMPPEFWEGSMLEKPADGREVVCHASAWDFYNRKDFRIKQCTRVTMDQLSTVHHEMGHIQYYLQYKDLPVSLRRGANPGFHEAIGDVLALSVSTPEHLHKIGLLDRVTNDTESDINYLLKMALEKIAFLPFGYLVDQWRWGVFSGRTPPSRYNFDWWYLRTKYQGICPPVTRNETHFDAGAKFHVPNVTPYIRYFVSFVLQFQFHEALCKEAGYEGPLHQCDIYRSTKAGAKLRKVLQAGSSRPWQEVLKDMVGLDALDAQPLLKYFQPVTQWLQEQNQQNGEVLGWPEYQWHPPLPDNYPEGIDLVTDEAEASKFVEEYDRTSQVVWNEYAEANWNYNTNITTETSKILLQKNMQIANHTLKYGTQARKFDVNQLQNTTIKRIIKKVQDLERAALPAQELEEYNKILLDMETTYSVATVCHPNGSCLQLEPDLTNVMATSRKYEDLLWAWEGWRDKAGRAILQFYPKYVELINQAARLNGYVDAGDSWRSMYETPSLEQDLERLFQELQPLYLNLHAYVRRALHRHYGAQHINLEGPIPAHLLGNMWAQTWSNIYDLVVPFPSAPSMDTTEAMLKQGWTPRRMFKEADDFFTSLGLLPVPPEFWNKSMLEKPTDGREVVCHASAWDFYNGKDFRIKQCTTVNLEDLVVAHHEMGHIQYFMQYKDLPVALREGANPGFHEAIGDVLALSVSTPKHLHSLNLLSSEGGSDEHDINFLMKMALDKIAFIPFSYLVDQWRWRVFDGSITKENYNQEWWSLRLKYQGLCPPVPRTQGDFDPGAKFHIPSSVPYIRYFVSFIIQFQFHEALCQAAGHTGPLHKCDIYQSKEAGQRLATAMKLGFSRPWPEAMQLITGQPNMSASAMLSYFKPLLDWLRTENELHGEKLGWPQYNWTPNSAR

Molecule: Phe--Ala--Pro
pIC50 [1]: 6.70

Molecule: Bz-Gly-Cys-Pro
pIC50 [1]: 6.30

pIC50 [1]: 3.00
Molecule: O=C(O)[C@@H]1CCCN1 [L-proline]

pIC50 [1]: 3.40
Molecule: O=C(N[C@@H](Cc1ccccc1)C(=O)O)c1ccccc1 [benzoyl-Phe]

pIC50 [1]: 8.05
Molecule: C[C@H](CSC(=O)[C@@H](Cc1ccccc1)NC(=O)c1ccccc1)C(=O)N1CCC[C@H]1C(=O)O [Example 197, N-[3-(benzoyl-D-phenylalanylthio)-2-D-methyl-propanoyl]-L-proline]

pIC50 [1]: 7.80
Molecule: C[C@H](CSC(=O)[C@H](Cc1ccccc1)NC(=O)c1ccccc1)C(=O)N1CCC[C@H]1C(=O)O [Example 196, N-[3-(benzoyl-L-phenylalanylthio)-2-D-methyl-propanoyl]-L-proline]

pIC50 [1]: 7.60
Molecule: C[C@H](CSC(=O)[C@H](Cc1ccccc1)NC(=O)[C@H](CCCCNC(=O)OC(C)(C)C)NC(=O)C1CCCC1)C(=O)N1CCC[C@H]1C(=O)O [N-alpha-[3-(N-alpha-cyclopentylcarbonyl-N-epsilon-tert-butyloxycarbonyl-L-lysyl-L-phenylalanylthio)-2-D-methylpropanoyl]-L-proline]

pIC50 [1]: 6.15
Molecule: O=C(NC(Cc1ccccc1)C(=O)SCCC(=O)N1CCC[C@H]1C(=O)O)c1ccccc1 (stereo partly drawn) [(III), 3-benzoylphenylalanylthio-propanoyl-L-proline]

Molecule: Bz-Phe-Ala-Pro
pIC50 [1]: 7.00

Molecule: γ Glu--Cys--Pro
pIC50 [1]: 4.96

Molecule: C[C@H](CSC(=O)[C@H](Cc1ccccc1)NC(=O)OC(C)(C)C)C(=O)N1CCC[C@H]1C(=O)O [N-alpha-[3-(N-alpha-tert-butyloxycarbonyl-L-phenylalanylthio)-2-D-methylpropanoyl]-L-proline]
Blood Pressure Response to 400 ng/kg of Angiotensin I ([2]; 3 min, Ex. 233): 100 % of Control
Blood Pressure Response to 400 ng/kg of Angiotensin I ([2]; 11 min, Ex. 233): 43 % of Control
Blood Pressure Response to 400 ng/kg of Angiotensin I ([2]; 22 min, Ex. 233): 27 % of Control
Blood Pressure Response to 400 ng/kg of Angiotensin I ([2]; 29 min, Ex. 233): 24 % of Control
Blood Pressure Response to 400 ng/kg of Angiotensin I ([2]; 34 min, Ex. 233): 22 % of Control
Blood Pressure Response to 400 ng/kg of Angiotensin I ([2]; 51 min, Ex. 233): 19 % of Control
Blood Pressure Response to 400 ng/kg Angiotensin I ([3]; 0.5 min): 0 % of Control
Blood Pressure Response to 400 ng/kg Angiotensin I ([3]; 3 min): 19 % of Control
Blood Pressure Response to 400 ng/kg Angiotensin I ([3]; 9 min): 19 % of Control
Blood Pressure Response to 400 ng/kg Angiotensin I ([3]; 13 min): 22 % of Control
Blood Pressure Response to 400 ng/kg Angiotensin I ([3]; 18 min): 31 % of Control
Blood Pressure Response to 400 ng/kg Angiotensin I ([3]; 22 min): 31 % of Control
Blood Pressure Response to 400 ng/kg Angiotensin I ([3]; 34 min): 50 % of Control
Blood Pressure Response to 400 ng/kg Angiotensin I ([3]; 47 min): 63 % of Control
Blood Pressure Response to 400 ng/kg Angiotensin I ([3]; 65 min): 78 % of Control
Blood Pressure Response to 400 ng/kg Angiotensin I ([3]; 103 min): 75 % of Control
Blood Pressure Response to 400 ng/kg Angiotensin I ([3]; 113 min): 94 % of Control

Molecule: C[C@H](CSC(=O)[C@H](Cc1c[nH]c2ccccc12)NC(=O)c1ccccc1)C(=O)N1CCC[C@H]1C(=O)O [N-alpha-[3-(N-alpha-benzoyl-L-tryptophylthio)-2-D-methylpropanoyl]-1-proline]
Blood Pressure Response to 400 ng/kg of Angiotensin I ([2]; 3 min, Ex. 242): 92 % of Control
Blood Pressure Response to 400 ng/kg of Angiotensin I ([2]; 7 min, Ex. 242): 64 % of Control
Blood Pressure Response to 400 ng/kg of Angiotensin I ([2]; 21 min, Ex. 242): 32 % of Control
Blood Pressure Response to 400 ng/kg of Angiotensin I ([2]; 26 min, Ex. 242): 40 % of Control
Blood Pressure Response to 400 ng/kg of Angiotensin I ([2]; 32 min, Ex. 242): 40 % of Control
Blood Pressure Response to 400 ng/kg of Angiotensin I ([2]; 38 min, Ex. 242): 20 % of Control
Blood Pressure Response to 400 ng/kg of Angiotensin I ([2]; 50 min, Ex. 242): 8 % of Control
Blood Pressure Response to 400 ng/kg of Angiotensin I ([2]; 56 min, Ex. 242): 8 % of Control
Blood Pressure Response to 400 ng/kg of Angiotensin I ([2]; 70 min, Ex. 242): 8 % of Control
Blood Pressure Response to 400 ng/kg of Angiotensin I ([2]; 79 min, Ex. 242): 20 % of Control
Blood Pressure Response to 400 ng/kg of Angiotensin I ([2]; 87 min, Ex. 242): 12 % of Control
Blood Pressure Response to 400 ng/kg of Angiotensin I ([2]; 104 min, Ex. 242): 12 % of Control
Blood Pressure Response to 400 ng/kg of Angiotensin I ([2]; 114 min, Ex. 242): 20 % of Control
Blood Pressure Response to 400 ng/kg of Angiotensin I ([2]; 124 min, Ex. 242): 40 % of Control
Blood Pressure Response to 400 ng/kg of Angiotensin I ([2]; 136 min, Ex. 242): 40 % of Control
Blood Pressure Response to 400 ng/kg of Angiotensin I ([2]; 148 min, Ex. 242): 36 % of Control
Blood Pressure Response to 400 ng/kg of Angiotensin I ([2]; 173 min, Ex. 242): 48 % of Control
Blood Pressure Response to 400 ng/kg of Angiotensin I ([2]; 186 min, Ex. 242): 48 % of Control
Blood Pressure Response to 400 ng/kg of Angiotensin I ([2]; 199 min, Ex. 242): 68 % of Control
Blood Pressure Response to 400 ng/kg of Angiotensin I ([2]; 212 min, Ex. 242): 64 % of Control
Blood Pressure Response to 400 ng/kg of Angiotensin I ([2]; 226 min, Ex. 242): 64 % of Control
Blood Pressure Response to 400 ng/kg of Angiotensin I ([2]; 242 min, Ex. 242): 80 % of Control
Blood Pressure Response to 400 ng/kg of Angiotensin I ([2]; 260 min, Ex. 242): 80 % of Control
Blood Pressure Response to 400 ng/kg of Angiotensin I ([2]; 291 min, Ex. 242): 84 % of Control
t1/2 ([3]; i.v. 0.193 μmol/kg): 11 min
t1/2 ([3]; i.v. 0.58 μmol/kg): 11 min
t1/2 ([3]; i.v. 1.93 μmol/kg): 15 min
